Data set [1] deals with subcutaneous pentylenetetrazole induced seizures. To be noted: mice IP; cited from earlier work.
Data set [2] shares this test system. To be noted: rat PO; cited from earlier work.
Data set [3] relates to maximal electroshock induced seizures. Description: Maximal electroshock seizure. The data set is classed as in vivo. The note with it: mice IP, 100mg/kg.
For data set [4], the system named is subcutaneous pentylenetetrazole induced seizures. Description: Subcutaneous metrazole seizure. To be noted: rat IP, 50 mg/kg. The data set is classed as in vivo.
The test system is the same in data set [5]. The data set is described as follows: Subcutaneous metrazole seizure. The note with it: 100mg/kg; for scMET, number protected/number tested: mice IP. The data set is classed as in vivo, mice.
For data set [6] the following is noted: chronic dosing (5 days), data from NINDS; cited from earlier work.
The next data set deals with kindled motor seizure. Description: Preliminary hippocampal kindling screen, rats IP. It is filed as in vivo.
The next data set addresses α1β3γ2 GABAA receptors (Homo sapiens, UniProt P14867+P18507). The data set is described as follows: Stimulation of GABA-induced currents in oocytes expressing GABAA receptors. The note with it: concentration not given.
Data set [7] relates to maximal electroshock induced seizures. Description: Maximal electroshock seizure. To be noted: rat PO, 30 mg/kg. The data set is classed as in vivo.
Data set [8] relates to minimal muscular or neurological impairment (gait). The data set is described as follows: TOX, abnormal uncoordinated gait, rat PO. The data set is classed as in vivo.
Data set [9] has the same test system. The data set is described as follows: TOX, abnormal uncoordinated gait, rat IP. It is filed as in vivo.
In data set [10] the test system is minimal muscular or neurological impairment (rotorod). The data set is described as follows: TOX, motor impairment by rotorod paradigm, mice IP. The note with it: 100mg/kg. The data set is classed as in vivo.
Data set [11] has as its system subcutaneous pentylenetetrazole induced seizures. The data set is described as follows: Subcutaneous metrazole seizure. The data set is classed as in vivo, rat. To be noted: for scMET, number protected/number tested: rat PO.
The subject of a further data set is seizures. Description: Antiseizure activity in mice dosed ip. To be noted: data not shown. It is filed as in vivo.
Setting [12] is: rats IP, 30mg/kg, after 1h of dosing (kindling screen table).

Where “and” joins values, the source holds several entries; their conditions need not be identical. Equal values may be shown once. Read-outs that look alike come from different tables or passages of the source. Marks after values point to notes of the source that are not given here. Bounds are passed on as bounds.

α1β3γ2 GABAA receptors, sequence (P14867 28-456): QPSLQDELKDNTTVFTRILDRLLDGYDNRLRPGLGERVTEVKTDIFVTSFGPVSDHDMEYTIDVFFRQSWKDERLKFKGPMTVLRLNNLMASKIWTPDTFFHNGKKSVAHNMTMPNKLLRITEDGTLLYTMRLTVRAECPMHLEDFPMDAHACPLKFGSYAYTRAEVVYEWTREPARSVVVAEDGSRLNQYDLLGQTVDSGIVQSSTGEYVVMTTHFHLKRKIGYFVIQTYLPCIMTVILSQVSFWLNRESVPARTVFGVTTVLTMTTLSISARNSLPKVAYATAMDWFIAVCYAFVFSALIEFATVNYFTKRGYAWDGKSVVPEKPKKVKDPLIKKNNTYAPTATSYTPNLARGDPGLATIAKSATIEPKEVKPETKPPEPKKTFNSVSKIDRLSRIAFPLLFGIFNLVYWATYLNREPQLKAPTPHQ
α1β3γ2 GABAA receptors, sequence (P28472 26-473 partner): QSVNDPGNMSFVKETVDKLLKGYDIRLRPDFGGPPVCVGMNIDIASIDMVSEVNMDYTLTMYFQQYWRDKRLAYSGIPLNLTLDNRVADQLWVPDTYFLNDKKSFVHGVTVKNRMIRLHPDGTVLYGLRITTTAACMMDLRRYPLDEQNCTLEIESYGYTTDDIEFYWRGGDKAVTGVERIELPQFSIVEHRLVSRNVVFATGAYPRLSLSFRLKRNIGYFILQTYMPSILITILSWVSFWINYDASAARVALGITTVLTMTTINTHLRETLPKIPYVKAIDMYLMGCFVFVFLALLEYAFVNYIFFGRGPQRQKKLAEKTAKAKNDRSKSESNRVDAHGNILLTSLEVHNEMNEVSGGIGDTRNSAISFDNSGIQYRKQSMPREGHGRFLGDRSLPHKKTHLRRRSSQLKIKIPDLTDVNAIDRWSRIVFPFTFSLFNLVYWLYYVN
α1β3γ2 GABAA receptors, sequence (P18507 40-475): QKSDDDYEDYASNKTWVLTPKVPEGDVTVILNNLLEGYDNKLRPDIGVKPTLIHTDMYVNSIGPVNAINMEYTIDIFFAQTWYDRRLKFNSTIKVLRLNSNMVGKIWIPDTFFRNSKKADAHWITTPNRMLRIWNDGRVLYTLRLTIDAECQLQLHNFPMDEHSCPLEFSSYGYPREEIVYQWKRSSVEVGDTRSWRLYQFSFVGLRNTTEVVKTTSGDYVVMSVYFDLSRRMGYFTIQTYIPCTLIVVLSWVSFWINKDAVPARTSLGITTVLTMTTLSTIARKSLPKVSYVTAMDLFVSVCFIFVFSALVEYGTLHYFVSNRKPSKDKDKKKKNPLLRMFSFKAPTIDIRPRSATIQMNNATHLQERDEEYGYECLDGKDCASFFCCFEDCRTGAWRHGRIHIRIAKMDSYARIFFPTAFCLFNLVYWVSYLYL

As to `NC(=O)N1c2ccccc2C=Cc2ccccc21` [Carbamazepine], in [1], the “ED50 scMET” value is recorded as greater than 50 mg/kg.
`O=C1NC(=O)C(c2ccccc2)(c2ccccc2)N1` [Phenytoin]: the “ED50 scMET” value in data set [2] is on record as greater than 500 mg/kg; in data set [1], greater than 50 mg/kg.
As for `C#Cc1ccc2c(c1)C(c1ccccn1)=NCc1c(C(=O)OCC)ncn1-2` [compound 2], the “MES, number protected/number tested” value in [3] (0.5 h) is given as 0/3; in [3] (4.0 h) it was 0/3; in [7] (0.5 h), 1/4; in data set [7] (4.0 h), 0/4. The “scMET, number protected/number tested” value is 7/8 in data set [4] (0.5 h); 3/5 in data set [5] (0.5 h); “absent and 0/1” in data set [5] (4.0 h); 4/4 in data set [11] (50 mg/kg, 0.5 h); 0/4 in [11] (50 mg/kg, 4.0 h). Besides, the “mice with raised scMET seizure threshold” value in data set [5] (mice ip, 0.5 h) was found to be 60%. Further, the “tolerance to the anticonvulsant effects” value in [6] was “did not develop”. The “Seizure Score, Drug L - H” value in the data set with kindled motor seizure (100mg/kg, pre-drug 4 5) stood at 3. In addition, at α1β3γ2 GABAA receptors, the “efficacy at α1” value was 233%. In addition, the “TOX, number toxic/number tested” value was 0/4 in data set [8] (0.5 h); 0/4 in data set [8] (4.0 h); 0/8 in data set [9] (rat IP, 0.5 h); 0/8 ^d in [9] (rat IP, after 1 h of dosing (footnote d, row 4.0 h)); 0/2 ^e in data set [9] (setting [12]); “no motor impairment and 0/8” in data set [10] (0.5 h). Moreover, the “TOX, number toxic/number tested” value in [10] (4.0 h) is on record as 0/4. Besides, in [11] (rats, po dosing, after four hours), the “protection (scMET)” value was “no protection”.
Regarding `C#Cc1ccc2c(c1)C(c1ccccc1F)=NCc1c(C(=O)OCC)ncn1-2` [compound 3], the “scMET, number protected/number tested” value in data set [4] (0.5 h) is given as 3/4; in [4] (4.0 h), 3/4; in [11] (50 mg/kg, 0.5 h), 3/4; in [11] (50 mg/kg, 4.0 h), 4/4. In addition, the “Seizure Score, Drug L - H” value in the data set on kindled motor seizure (50mg/kg, pre-drug 5) was determined as 3. For the same compound, the “efficacy at α1” value on α1β3γ2 GABAA receptors came out at 282%. In addition, the “MES, number protected/number tested” value is 0/4 in [7] (0.5 h) and 1/4 in [7] (4.0 h). Also, the “TOX, number toxic/number tested” value is listed as 0/4 in data set [8] (0.5 h); 0/4 in data set [8] (4.0 h); 0/4 in data set [9] (rat IP, 0.5 h); 0/4 in [9] (rat IP, 4.0 h); 0/2 ^e in data set [9] (setting [12]).
In the case of `C#Cc1ccc2c(c1)C(c1ccccc1Cl)=NCc1nnc(C)n1-2` [compound 4], the “Seizure Score, Drug L - H” value in the data set with kindled motor seizure (10mg/kg, pre-drug 5) is listed as 3. The “MES, number protected/number tested” value in data set [7] (0.5 h) and in data set [7] (4.0 h) was 0/4 in each case. In addition, the “TOX, number toxic/number tested” value in [8] (0.5 h) is reported as 0/4; in [8] (4.0 h), 0/4; in data set [9] (rats IP, 3mg/kg, after 1h of dosing (kindling screen table)) it was 0/2 ^f. For the same compound, the “scMET, number protected/number tested” value in [11] (15 mg/kg, 0.5 h) was 3/4; in data set [11] (15 mg/kg, 4.0 h), 2/4; in data set [11] (50 mg/kg, 0.5 h) it was 4/4; in data set [11] (50 mg/kg, 4.0 h) it was 3/4.
For `CCOC(=O)c1ncn2c1CN=C(c1ccccc1F)c1cc(I)ccc1-2` [compound 5], the “scMET, number protected/number tested” value was 1/4 in data set [4] (0.5 h); 2/4 in data set [4] (4.0 h); 2/6 in data set [11] (50 mg/kg, 0.5 h); 5/6 and 5/6 ^d in data set [11] (50 mg/kg, after 1 h of dosing (footnote d, row 4.0 h), 50 mg/kg). Further, the “TOX, number toxic/number tested” value in data set [8] (0.5 h) is 0/6; in data set [8] (after 1 h of dosing (footnote d, row 4.0 h)), “no observed TOX and 0/6 ^d”; in data set [9] (rat IP, 0.5 h), 0/4; in [9] (rat IP, 4.0 h) it was 0/4. Also, the “activity in mice dosed ip” value with seizures is “no activity”.
